1 substance from patent US7097856B2, “Dendrimeric support or carrier macromolecule” (priority 2000, dated 2006) can be followed below.

The data set relates to complementary strand of DNA. Put plainly: Thermal denaturation of DNA-dendrimer conjugate hybridized with complementary strand. The format is binding.

On to “native: unmodified single stranded DNA, sequence TTC TCT TCA GTT CAC A (5′ to 3′) (DNA TTCTCTTCAGTTCACA; unmodified DNA)”, for which the “Tm (thermal denaturation, melting temperature)” value turned out to be 52.3 °C.
